Assay results taken from article PMC9645344, “Serotonin-releasing agents with reduced off-target effects” (Molecular Psychiatry, 2022).

How the values were obtained:
[1] = system: C57BL/6N mice; assay: Open-field test; format: in vivo; details: indicated doses (1, 5 and 10 mg kg-1) intraperitoneal, 1 h
Procedure: (§1) All in vivo experiments were performed in adult mice (>6 weeks old). For the photometry and microdialysis experiments, which were carried out in Florida, male C57BL/6J mice from The Jackson Laboratory (Bar Harbor, ME, USA) were group-housed in polycarbonate cages (GM500, Tecniplast, Buguggiate, Italy) with lights on from 7 a.m. to 7 p.m. Food and water were provided ad libitum. Photometry and microdialysis experiments were performed in accordance with a protocol approved by the Institutional Animal Care and Use Committee at Florida Atlantic University. For the behavioral experiments, which were carried out in Vienna, C57BL/6N mice from Charles River (Sulzfeld, Germany) were group-housed in polycarbonate cages with lights on from 7 a.m. to 7 p.m. Food and water were provided ad libitum. Behavioral experiments were performed in accordance with a protocol approved by the Austrian national ethical committee on animal care and use (Bundesministerium für Wissenschaft und Forschung: BMWFW-66.009/0016-WF/V/3b/2015). All animal procedures were conducted in agreement with the ARRIVE guidelines and the U.K. Animal (Scientific Procedures) Act, 1986, and associated guidelines, EU Directive 2010/63/EU for animal experiments. Mice were given at least 1 week to acclimate before being used in any experiments.
For behavioral assays, animals were assigned to treatment groups and injected with test drugs by an unblinded observer.
Mice were placed into an open field arena (27.3 × 27.3 × 27.3 cm) surrounded by infrared beams to track movements. The total distance traveled over 1 h was recorded using Activity Monitor (Med Associates Inc., St. Albans, VT, USA) and interpreted as a measure of the psychostimulant effects. Animal sample size was confirmed using a post hoc analysis of the achieved power using G*Power3.1 [29]. Using a significance level (α) of 0.05 and an effect size f = 1.92 and a sample size of 7.5 animals (5–10)/group we achieved the commonly accepted statistical power (1−β) of 0.8.

[2] = system: extracellular 5-HT in the NAc; assay: Fiber photometry with GRAB5-HT sensor in the NAc of freely moving mice; format: in vivo; details: for relative GRAB5-HT fluorescence at peak versus saline: t = 700-900 s post injection, drug alone, D-FEN 10, S-4-MC 5, S-4-TFMMC 10 mg kg-1 intraperitoneal
Procedure: as §1
Mice were anesthetized with isoflurane (5% induction, 2% maintenance) and placed into a stereotaxic frame (Kopf Instruments, Tujunga, CA, USA) oriented in the flat skull position. Ophthalmic ointment was applied to prevent drying of the eyes. Ketoprofen (10 mg kg^−1) was administered subcutaneously (s.c.), whereas bupivacaine and lidocaine were administered locally (s.c.; 100 µl of sterile saline containing 0.05% bupivacaine and 0.2% lidocaine) to the surgical site atop the head. A midline incision was made through the skin on the dorsal surface of the head to expose the skull. Fascia was removed, coordinates for the NAc were determined relative to bregma: anterior/posterior = 1.54 mm; medial/lateral = 0.7 mm; dorsal/ventral = −4.1 mm. A 1 mm burr hole was drilled through the skull. […] For the mice used for fiber photometry, 4*10^12 genome copies of AAV9-hSyn-5-HT2h or 10^10 genome copies of AAV-hSyn-DA2m were delivered into the NAc at an infusion rate of 100 nl min^−1 (total volume of 1 µl) using a 34-gauge needle attached to a 10 µl Nanofil microsyringe (Hamilton, Reno, NV, USA), as previously described. Following injection of the virus, an optical fiber was lowered through the burr hole and secured with glass ionomer cement. Three 1.6 mm screws (00-96X1/16 39052, Plastics One Inc., Roanoke, VA, USA) were affixed to the skull to support a cement stage that was created to secure the implanted guide cannulae or optical fiber. Mice were singly housed following surgery and allowed 6 days of recovery for the microdialysis experiments or 21 days for the photometry experiments. Food and water were available ad libitum.
To monitor light emitted from the G-protein coupled receptor-activation-based 5-HT (GRAB5-HT) and DA (GRABDA) sensors, fiber photometry was performed as described. Briefly, a light emitting diode (465 nm) (CLED_465, Doric Lenses, Quebec, QC, Canada), reflected through a dichroic mirror, was coupled to an optical fiber (200 µm core/225 cladding diameter; Thorlabs, Newton, NJ, USA) that was glued to a metal ferrule (Doric Lenses, Quebec, QC, Canada) and implanted into the NAc as described above. Emitted, band-pass filtered light (500–550 nm, FMC6, Doric Lenses, Quebec,QC, Canada) was detected with a photodetector (Newport Femtowatt silicone PIN; New Focus, San Jose, CA, USA). Data were recorded using a RZ5P lock-in amplifier (Tucker-Davis Technologies, Alachua, FL, USA) controlled with Synapse software. Sinusoidal excitation was delivered at 210 Hz by an LED driver Doric Lenses, LEDD_4) at low power mode. A demodulated signal was low-pass filtered at 6 Hz and digitized at 1017 Hz. […]

[3] = system: extracellular DA in the NAc; assay: Fiber photometry with GRABDA sensor in the NAc; format: in vivo, mice
Procedure: All in vivo experiments were performed in adult mice (>6 weeks old). For the photometry and microdialysis experiments, which were carried out in Florida, male C57BL/6J mice from The Jackson Laboratory (Bar Harbor, ME, USA) were group-housed in polycarbonate cages (GM500, Tecniplast, Buguggiate, Italy) with lights on from 7 a.m. to 7 p.m. Food and water were provided ad libitum. Photometry and microdialysis experiments were performed in accordance with a protocol approved by the Institutional Animal Care and Use Committee at Florida Atlantic University. […]
Mice were anesthetized with isoflurane (5% induction, 2% maintenance) and placed into a stereotaxic frame (Kopf Instruments, Tujunga, CA, USA) oriented in the flat skull position. […] Fascia was removed, coordinates for the NAc were determined relative to bregma: anterior/posterior = 1.54 mm; medial/lateral = 0.7 mm; dorsal/ventral = −4.1 mm. […]
To monitor light emitted from the G-protein coupled receptor-activation-based 5-HT (GRAB5-HT) and DA (GRABDA) sensors, fiber photometry was performed as described. […] Emitted, band-pass filtered light (500–550 nm, FMC6, Doric Lenses, Quebec,QC, Canada) was detected with a photodetector (Newport Femtowatt silicone PIN; New Focus, San Jose, CA, USA). Data were recorded using a RZ5P lock-in amplifier (Tucker-Davis Technologies, Alachua, FL, USA) controlled with Synapse software. […]

[4] = molecular target: 5-HT2B receptor (Homo sapiens, UniProt P41595); set-up: method as in PMID 30610839; details: concentrations as high as 7 µM; cited from earlier work
Chain of 5-HT2B receptor (P41595 whole entry): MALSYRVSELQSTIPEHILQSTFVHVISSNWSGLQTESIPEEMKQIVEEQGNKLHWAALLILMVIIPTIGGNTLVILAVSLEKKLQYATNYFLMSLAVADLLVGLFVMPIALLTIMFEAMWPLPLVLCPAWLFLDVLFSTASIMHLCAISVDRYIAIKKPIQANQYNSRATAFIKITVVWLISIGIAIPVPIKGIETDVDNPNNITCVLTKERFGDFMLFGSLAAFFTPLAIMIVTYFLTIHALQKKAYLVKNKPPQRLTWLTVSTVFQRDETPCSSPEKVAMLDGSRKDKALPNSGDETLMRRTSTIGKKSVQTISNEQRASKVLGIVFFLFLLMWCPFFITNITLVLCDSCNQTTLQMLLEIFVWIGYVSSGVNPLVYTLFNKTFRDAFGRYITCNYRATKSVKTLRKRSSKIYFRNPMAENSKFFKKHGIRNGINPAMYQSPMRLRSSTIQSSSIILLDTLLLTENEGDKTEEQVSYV

Structure (SMILES) | horizontal locomotor activity (total distance traveled) in the open field test [1] | extracellular 5-HT in the NAc (GRAB5-HT fluorescence) ([2]; 5 mg kg-1 intraperitoneal) | 5-HT sensor response on day 1 versus day 2 ([2]; 5 mg kg-1 intraperitoneal, two doses 24 h apart) | extracellular 5-HT in the NAc (GRAB5-HT fluorescence) with co-administered fluoxetine ([2]; 5 mg kg-1 plus fluoxetine 10 mg kg-1 intraperitoneal) | relative GRAB5-HT fluorescence at peak versus saline [2] | basal DA levels in the NAc (GRABDA fluorescence) ([3]; 5 mg kg-1 intraperitoneal) | binding to the 5-HT2B receptor [4] | extracellular 5-HT in the NAc (GRAB5-HT fluorescence) ([2]; 10 mg kg-1 intraperitoneal) | extracellular 5-HT in the NAc (GRAB5-HT fluorescence) with co-administered fluoxetine ([2]; 10 mg kg-1 plus fluoxetine 10 mg kg-1 intraperitoneal) | basal DA levels in the NAc (GRABDA fluorescence) ([3]; 10 mg kg-1 intraperitoneal)
Cc1ccc(C(=O)[C@H](C)N)cc1 [S-4-MC, 4-methylcathinone] | did not differ from vehicle | elevated extracellular 5-HT in the NAc in a time-dependent manner | no significant difference | this effect could be prevented by fluoxetine | Significant effects | neither S-4-MC, nor S-4-TFMMC significantly elevated the basal DA levels | no binding | – | – | –
CN[C@@H](C)C(=O)c1ccc(C(F)(F)F)cc1 [S-4-TFMMC, 4-trifluoromethyl-N-methylcathinone] | did not differ from vehicle | – | – | – | Significant effects | – | – | elevated extracellular 5-HT in the NAc in a time-dependent manner | this effect could be prevented by fluoxetine | neither S-4-MC, nor S-4-TFMMC significantly elevated the basal DA levels
